{"source": "patent US20240165127A1", "about": "“CONTRAST AGENT FOR DIAGNOSIS OF VASCULAR DISEASE CONTAINING GADOLINIUM-BASED COMPOUND AS ACTIVE INGREDIENT AND SYNTHESIS METHOD THEREFOR” (DAEGU CATHOLIC UNIVERSITY INDUSTRY ACADEMIC COOPERATION …, priority 2022, published 2024)", "key": {"elastase activity": {"tested_on": "elastase activity", "assay": "Ex vivo T1-weighted MRI, CNR and ICP/MS gadolinium content of aortas from rats with induced abdominal aortic aneurysm (AAA) and from healthy rats", "design": "species or system Sprague-Dawley (SD) rats", "conditions": "for T1-signal intensity in T1-weighted MRI: immersed at 1.28 mM for 1 hour, washed 3 times with PBS", "text": "As experimental animals, 7-week-old Sprague-Dawley (SD) rats were used. The rats were maintained on a 12-hour light-dark cycle with free access to water and feed for one week of acclimatization. Then, the rats were randomly divided into a normal control group and an experimental group (aortic aneurysm group), and each group was further divided into a Dotarem-administered group and a Gd-DOTA-click-SF-administered group. Accordingly, the rats were divided into a total of 4 groups, each consisting of 4 animals.\nTo induce an abdominal aortic aneurysm, rats were anesthetized by inhalation with 2 to 2.5% isoflurane, and then their abdomen was incised to expose the aortic branches. Next, 300 μL of 12U porcine pancreatic elastase was perfused for 10 minutes.\nAfter 5 weeks, the aorta with induced abdominal aortic aneurysm was harvested, immersed in Dotarem or the Gd-DOTA-click-SF of the present disclosure at 1.28 mM for 1 hour under shaking. Then, it was taken out and washed 3 times with PBS. Finally, the samples were placed in PCR tubes filled with PBS and were examined by T1-weighted MRI. The same procedure was also applied to the aorta from the healthy normal control group, which was immersed in Dotarem or the Gd-DOTA-click-SF of the present disclosure at 1.28 mM for 1 hour under shaking. Then, it was taken out and washed 3 times with PBS. Finally, the samples were placed in PCR tubes filled with PBS and were examined by T1-weighted MRI.\nThe CNRs of the MRI results for the four groups, identified in Example 7, were examined, and the concentrations of gadolinium were measured using ICP/MS (ICP/MS 7700, Agilent, USA)."}, "[1]": {"assay": "Transmetallation kinetics: stability of Gd(III) complex in presence of Zn(II) ions, ICP/MS", "type": "physicochemical", "conditions": "1 mM complex, 250 mM ZnCl2 in phosphate buffer, 0 to 48 hours", "protocol": "In vivo, the transmetallation of the Gd complex occurs because Gd^3+ ions compete with other endogenous cations and endogenous anions that destabilize the gadolinium complex and shift the dissociation equilibrium toward its free components. For this reason, the in vitro stability of the Gd(III) complex should be investigated in the presence of Zn(II) ions. 8 μL of a solution of 250 mM ZnCl2 in phosphate buffer was added to 1.5 mL of 1 mM Gd-DOTA-click-SF complex and the mixture was stirred. Thereafter, the solution was collected at 0, 2, 4, 6, 8, 24, and 48 hours and filtered. […] To compare the stability of Gd-DOTA-click-SF with that the clinical contrast agent Dotarem, the same procedure was repeated three times."}, "[2]": {"assay": "In vitro molar longitudinal relaxivity (r1), 3.0T MRI, inversion recovery method", "type": "physicochemical", "conditions": "25° C., concentrations 0.01, 0.02, 0.04, 0.06, 0.08, and 0.1 mM", "protocol": "(§1) To obtain quantitative information on the efficacy of the Gd-DOTA-click-SF probe and Dotarem as MRI contrast agents, the molar longitudinal relaxivities (r1) thereof were analyzed. At 25° C., 3.0T MRI was performed using the inversion recovery method, and 9.4T MRI was performed using the RARE (Rapid Acquisition with Refocused Echoes) method."}, "[3]": {"assay": "In vitro molar longitudinal relaxivity (r1), 9.4T MRI, RARE method", "type": "physicochemical", "conditions": "25° C.", "protocol": "as §1"}, "endothelial C166 cells": {"tested_on": "endothelial C166 cells", "assay": "In vitro cell viability, CCK-8 assay", "type": "cell-based", "conditions": "0.01 to 0.1 mM, 24 hours", "protocol": "The cytotoxicity of the Gd-DOTA click-SF probe was assessed against macrophage RAW264.7 cells and endothelial C166 cells using the CCK-8 assay according to the instructions provided by the manufacturer. RAW264.7 cells and endothelial C166 cells were cultured in DMEM containing 10% FBS and 1% penicillin-streptomycin (10000 U/ml). 2.5×10^4 RAW 264.7 cells and 3×10^3 C166 cells per well in 100 μL of DMEM well were seeded in 96-well plates. The cells were cultured at 37° C. for 24 hours in a humidified atmosphere containing 5% CO2, and then for comparison, each of the Gd-DOTA-click-SF probe and Dotarem was added thereto at concentrations of 0.01, 0.025, 0.05, 0.075, and 0.1 mM, followed by incubation at 37° C. for 24 hours. Thereafter, the cells were treated with 10 μl of CCK-8 solution and further cultured for 2 hours at 37° C., and the absorbance of each well was measured at 450 nm using a microplate reader."}}, "note": "Where “and” joins values, the source holds several entries; their conditions need not be identical. Equal values may be shown once.", "data": [{"compound": "CNC[C@H](O)[C@@H](O)[C@H](O)[C@H](O)CO.O=C([O-])CN1CCN(CC(=O)[O-])CCN(CC(=O)O)CCN(CC(=O)[O-])CC1.[Gd+3]", "note": "[Dotarem]", "values": [{"measurement": "T1-signal intensity in T1-weighted MRI", "setting": "elastase activity; AAA aorta ex vivo", "result": "did not show high signal intensity"}, {"measurement": "binding to the arterial wall", "setting": "elastase activity; ex vivo aortas, after washing with PBS", "result": "very low"}, {"measurement": "T1-signal intensity in T1-weighted MRI", "setting": "elastase activity; healthy normal aorta ex vivo", "result": "did not show high signal intensity"}, {"measurement": "stability of Gd(III) complex (kinetic inertness, transmetallation)", "setting": "[1]", "result": "very stable in the presence of Zn(II) ions without transmetallation"}, {"measurement": "3.0T r1 (molar longitudinal relaxivity)", "setting": "[2]", "result": "2.105 mM^−1s^−1 and 2.211^a mM^−1s^−1"}, {"measurement": "9.4T r1 (molar longitudinal relaxivity)", "setting": "[3]; concentrations 0.01, 0.02, 0.04, 0.06, 0.08, and 0.1 mM", "result": "4.647 mM^−1s^−1 and 4.647^a mM^−1s^−1"}, {"measurement": "9.4T r1 (molar longitudinal relaxivity)", "setting": "[3]; concentrations 0.04, 0.08, 0.16, 0.32, and 0.64 mM", "result": "5.064 mM^−1s^−1 and 5.064^b mM^−1s^−1"}, {"measurement": "cell viability / cytotoxicity", "setting": "endothelial C166 cells", "result": "non-cytotoxic"}]}]}
